Source: publication PMC11459959, “Discovery of new acetamide derivatives of 5-indole-1,3,4-oxadiazol-2-thiol as inhibitors of HIV-1 Tat-mediated viral transcription” (Antimicrobial Agents and Chemotherapy, 2024)

Tests used:
Tat protein = assay: Nuclear localization of Tat protein, cell fractionation and western blotting; format: cell-based, HIV-1; details: 1.5 μM, transfected cells
HIV-1 transcripts = assay: RNA-seq of HIV-1 transcripts in infected TZM-bl cells; format: cell-based; details: HIV-1NL4-3 MOI 1, 1.5 µM, 2 days
Description: At 48 h after infection, the total RNA was extracted using the Maxwell RSC simplyRNA Cells Kit (Promega) according to the manufacturer’s instructions. RNA integrity was evaluated as RNA integrity number >6 using the Agilent 2100 Bio-analyzer (Agilent Technologies, Santa Clara, CA, USA). The cDNA libraries were constructed using TruSeq Stranded mRNA Sample Preparation Kit (Illumina, San Diego, CA, USA) according to the manufacturer’s instructions. Subsequently, these cDNA libraries were sequenced on the Illumina sequencing platform (NovaSeq6000; Illumina) and 150 bp paired-end reads were generated. Trimmomatic (v.0.32) was used to eliminate low-quality reads and adapter sequences from the sequencing data ([64]). Subsequently, the filtered reads were aligned to the HIV-1 genome (accession: AF324493.2) using STAR (v.2.3.0) ([65]). RT-qPCR analyses were performed as previously described ([66]) with some minor modifications. […] After infection, the infected cells were treated with 1.5 µM of the compounds. Forty-eight hours after treatment, the viral mRNA was isolated, converted to cDNA, and quantified through RT-qPCR on a 7500 Real-Time PCR System (Applied Biosystems) using the Power SYBR Green PCR Master Mix (Applied Biosystems). The comparative cycle threshold (Ct) method was used to analyze relative changes (Δ) in gene expression. The ΔCt values were determined using a 7500 Real-Time PCR System Software (Applied Biosystems) normalizing with gapdh, and the gene expression was calculated using the ΔΔCt-method. The primers used in this assay are the following: gag forward, 5′-[…]-3′, gag reverse, 5′-[…]-3′; gapdh forward, 5′-[…]-3′, gapdh reverse, 5′-[…]-3′.

[1] = tested on: PI-resistant HIV-1 strain 11803; assay: microbe, parasite or virus in culture; format: cell-based; details: Human immunodeficiency virus 1, PBMC
Excerpt: (§1) The Tzm-bl-derived dual Tat reporter; TZM-bl/Tat/Rluc (bl-DTR) cells were established from TZM-bl cells using two Dox-inducible lentiviral expression cassettes cloned with Flag-tagged Tat86 and the R-Luc gene, as described in our previous study ([11]). TZM-bl, A3.01, J1.1, and J-Lat 6.3 cells as well as the HIV-1 molecular clone pNL4-3, pNL(AD8), ARV-resistant HIV-1 strains, and HIV-1NL43-IRES-eGFP (pBR43IeG-nef^+, gifted by Dr. Frank Kirchhoff) ([52]) were provided by the National Institute of Health HIV Reagent Program (NIH, Bethesda, MD, USA). HeLa (CCL-2) and 293T (CRL-3216) cell lines were purchased from the American Type Culture Collection (ATCC, Manassas, VA, USA). The bl-DTR, TZM-bl, HeLa, and 293T cells were cultured in Dulbecco’s modified Eagle’s medium supplemented with 1% penicillin–streptomycin and 10% (vol/vol) heat-inactivated fetal bovine serum (all from Gibco-BRL, Gaithersburg, MD, USA), and 1 µg/mL of puromycin and 200 µg/mL of zeocin were additionally supplemented for the bl-DTR cells. PBMCs were purchased from AllCells (Alameda, CA, USA) and cultured as previously described ([12]). The information on ARV-resistant HIV-1 strains was described in previous reports as follows: NNRTI-resistant 12241 and 12243 ([53]); NRTI-resistant 7396, 7406, and 7407 ([54]); INSTI-resistant 11847 and 11849 ([55], [56]); and PI-resistant 11800 and 11803 ([57]). Each molecular HIV-1 clone was transfected to 293T cells, as previously described ([58]), to obtain infectious HIV-1 particles. Virus-containing cell culture supernatants were collected 3 days after transfection, and filtered through a 0.45-µm membrane filter (Millipore Sigma, Burlington, MA, USA) to remove cell debris. The viral titration was performed as described previously ([59]) with some minor modifications. In brief, 1 × 10^4 TZM-bl cells seeded in 96-well plates were infected with 200 µL of virus-containing medium diluted serially twofold. The incubation was for 2 days and the experiment was performed in triplicate; the infection time minimized the virus spread ([59]). The titration of the infectious viral particles was performed with a ß-Gal staining assay using the ßeta-Galactosidase Staining Kit (Mirus Bio, Madison, WI, USA) following the manufacturer’s protocols. In brief, the infected cells were washed with phosphate-buffered saline (PBS) and fixed using a Cell Fixative Working solution. The cells were washed with PBS and stained using the Cell Staining Working Solution containing X-gal. The infected blue-colored cells were counted under a microscope (100× magnification). The infectious virus titer was determined as a mean value of blue-colored cells count × dilution factor and used for determining the multiplicity of infection (MOI) in each infection experiment.
(§2) The inhibitory effects of the compounds on viral replication were determined with some minor modifications, as previously described ([12], [62]). […] PBMCs (4 × 10^5) pre-activated with PHA-M for 3 days were washed with fresh media to remove excess PHA-M and subsequently infected with HIV-1NL4-3 or HIV-1AD8 or PIs-resistant HIV-1 strains as A3.01 infection. After infection, the infectious media were replaced with fresh media supplemented with international 10 units (IU)/mL of IL-2 and the indicated compounds. At 72 h after infection, the inhibitory effect of the compounds on viral replication was determined by measuring the p24 amount, an HIV capsid protein, using an HIV-1 p24 […] kit (PerkinElmer, Waltham, MA, USA). Cell viability was determined as described above. The inhibitory effects on provirus reversing in J1.1 and J-Lat 6.3 cells were determined as previously described ([12], [41], [63]) with some minor modifications.

[2] = tested on: PI-resistant HIV-1 strain 11800; assay: microbe, parasite or virus in culture; format: cell-based; details: Human immunodeficiency virus 1, PBMC
Excerpt: as §1, §2

CDK9/Cyclin T = target: T1, CDK9/Cyclin T (Homo sapiens, UniProt P50750); assay: CDK9/Cyclin T kinase assay; format: biochemical; details: in vitro kinase kit, serial dilutions
T1 construct: purchased BPS Bioscience
T1 sequence (P50750 whole entry): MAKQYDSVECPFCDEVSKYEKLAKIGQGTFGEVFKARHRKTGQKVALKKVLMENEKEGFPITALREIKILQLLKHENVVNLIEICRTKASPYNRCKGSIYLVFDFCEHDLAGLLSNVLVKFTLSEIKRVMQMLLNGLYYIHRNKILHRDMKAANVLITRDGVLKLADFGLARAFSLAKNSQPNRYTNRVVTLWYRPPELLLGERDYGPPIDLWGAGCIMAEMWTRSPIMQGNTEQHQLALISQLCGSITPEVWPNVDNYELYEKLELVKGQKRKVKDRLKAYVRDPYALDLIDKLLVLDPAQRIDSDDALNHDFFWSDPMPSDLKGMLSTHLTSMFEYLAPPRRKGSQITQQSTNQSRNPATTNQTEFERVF
T1 sequence (O60563 whole entry partner): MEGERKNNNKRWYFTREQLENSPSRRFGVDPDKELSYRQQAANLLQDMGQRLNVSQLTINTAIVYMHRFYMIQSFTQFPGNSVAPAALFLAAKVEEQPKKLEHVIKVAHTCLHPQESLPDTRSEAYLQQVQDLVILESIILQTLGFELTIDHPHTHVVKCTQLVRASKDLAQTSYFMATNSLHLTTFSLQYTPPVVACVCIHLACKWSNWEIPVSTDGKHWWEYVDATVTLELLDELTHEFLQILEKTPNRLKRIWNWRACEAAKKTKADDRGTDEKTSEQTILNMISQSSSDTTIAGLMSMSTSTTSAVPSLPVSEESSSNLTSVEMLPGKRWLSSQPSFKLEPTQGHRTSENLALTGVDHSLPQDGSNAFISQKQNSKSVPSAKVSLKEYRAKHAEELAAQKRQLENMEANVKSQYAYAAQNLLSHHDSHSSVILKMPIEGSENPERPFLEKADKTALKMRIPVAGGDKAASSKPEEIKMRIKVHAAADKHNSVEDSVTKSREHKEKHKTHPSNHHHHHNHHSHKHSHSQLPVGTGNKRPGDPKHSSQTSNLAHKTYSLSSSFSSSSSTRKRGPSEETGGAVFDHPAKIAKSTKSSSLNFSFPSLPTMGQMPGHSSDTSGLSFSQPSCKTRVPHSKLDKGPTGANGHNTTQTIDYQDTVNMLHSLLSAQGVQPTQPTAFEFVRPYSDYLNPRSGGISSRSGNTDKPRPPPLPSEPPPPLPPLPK
Description: In brief, 12.5 µL of the Master Mix (Kinase Assay Buffer 1 supplemented with ATP and CDK Substrate Peptide 2) was mixed with 2.5 µL of each test compound diluted serially. The mixture was then mixed with CDK9/Cyclin T Kinase (50 ng/10 µL diluted in 1× Kinase Assay Buffer 1) and incubated for 45 min. The kinase activity was measured using Kinase-Glo Max (Promega). A decreased level of luminescence relative to ATP concentration indicated kinase activity, which was expressed as the percent of DMSO control.

| Structure (SMILES) | change in nuclear localization of the Tat protein (Tat protein) | read counts of transcripts mapped to the HIV-1 genome (HIV-1 transcripts) | EC50 [1] [nM] | EC50 [2] [nM] | inhibition of CDK9/Cyclin T kinase activity (CDK9/Cyclin T) |
| --- | --- | --- | --- | --- | --- |
| Cc1[nH]c2ccc(-c3nnc(SCC(=O)N4CCCCC4)o3)cc2c1C [Compound 9, 2-((5-(2,3-Dimethyl-1H-indol-5-yl)-1,3,4-oxadiazol-2-yl)thio)-1-(piperidin-1-yl)ethan-1-one] | no changes were observed | substantially reduced | 260 ± 80 | 540 ± 250 | did not exhibit |
| Cc1[nH]c2ccc(-c3nnc(SCC(=O)N4CCCC4)o3)cc2c1C [Compound 13, 2-((5-(2,3-Dimethyl-1H-indol-5-yl)-1,3,4-oxadiazol-2-yl)thio)-1-(pyrrolidin-1-yl)ethan-1-one] | no changes were observed | substantially reduced | 280 ± 40 | 810 ± 30 | did not exhibit |
